Patent US6964783B1, “Non-solid composition for local application” (Naturveda, priority 1999, dated 2005)

Test system: 0.4×0.4 cm wound
Test: Wound healing in shaved rats after local application
Type: in vivo
Conditions: 0.2 ml applied on wound
Experimental: 30 rats (IFFA-CREDO SPF weighing 200+/−20 g) were shaved (3×3 cm) on the right side of the back. A 0.4×0.4 cm wound was produced at the centre of the shaved area. 30 minutes after producing the small wound, the coagulated blood was removed and 0.2 ml of glycerine containing 3% Alchemilla vulgaris (preparation according to example 4) or 0.2 ml of pure glycerine (controls) were applied on ten animals. The ten other control rats received 0.2 ml of distilled water. The complete healing time and the healing index were determined each day for 10 days. The healing time was reduced by 48% with the treatment based on glycerine containing 3% Alchemilla vulgaris, with a healing index of 2.1 in the treated lot, compared to an index of 3.3 obtained with the control lot.
With glycerine alone, the healing time was reduced by 26% with a healing index of 2.7.

`OCC(O)CO` [glycerine alone, glycerine] was tested, and the healing index (determined each day for 10 days, control lot 3.3) was 2.7 and the “healing time reduced by” value (followed each day for 10 days, versus control lot) was 26%.
